This passage reports MIC and MBC/MFC results from patent US20230263757A1, “DISINFECTING WIPE KIT FOR CENTRAL VENOUS ACCESS DEVICES” (SterileCare Inc., priority 2022, published 2023).

Each structure is given as a SMILES string. Counter-ions that a name gives are not always drawn.

Common to all, as to format: cell-based
The subject of one assay is all test organisms. Briefly: MIC, micro broth dilution (summary in text). To be noted: planktonic cells, read-out: MICs ranging over all test organisms. As to the method: An assay was made using a minimum inhibitory concentration (MIC) and minimum bactericidal concentration (MBC) and minimum fungicidal concentration (MFC) determination. The MIC was determined by the micro broth dilution method in 96-well plates. […] A 10 μL containing 1×10^5 bacterial cells or 2×10^3 fungal cells were added to each well. The inoculated plates were covered with a lid, sealed with Parafilm, and incubated for 24 h at 37° C. with slight rocking on a tilting platform shaker. After incubation, the optical density at 600 nm (OD 600) of the cultures in each well was measured using an xMark™ Microplate Absorbance Spectrophotometer (Bio-Rad). The MIC was defined as the lowest concentration of antimicrobial compound at which the culture OD600 values were similar to uninoculated control wells. MBCs and MFCs were determined by transferring 100 μL from each well with no apparent growth onto appropriate agar plates, followed by incubation for 24 h at 37° C.
A general note: Dilution methods test growth across graded concentrations, often in twofold steps.

Assay [1] relates to Staphylococcus epidermidis ON170. Briefly: MBC/MFC determination. To be noted: alone. As to the method: (§1) An assay was made using a minimum inhibitory concentration (MIC) and minimum bactericidal concentration (MBC) and minimum fungicidal concentration (MFC) determination. The MIC was determined by the micro broth dilution method in 96-well plates. Serial two-fold dilutions of tetrasodium EDTA (from 2% to 0.015%), ethanol (from 50% to 0.1%) and chlorhexidine HCl (from 100 μg/mL to 0.025 μg/mL) were prepared in MH broth with a final volume of 90 μL per well. A 10 μL containing 1×10^5 bacterial cells or 2×10^3 fungal cells were added to each well. The inoculated plates were covered with a lid, sealed with Parafilm, and incubated for 24 h at 37° C. with slight rocking on a tilting platform shaker. After incubation, the optical density at 600 nm (OD 600) of the cultures in each well was measured using an xMark™ Microplate Absorbance Spectrophotometer (Bio-Rad). […] MBCs and MFCs were determined by transferring 100 μL from each well with no apparent growth onto appropriate agar plates, followed by incubation for 24 h at 37° C.

The next assay concerns Escherichia coli ON29. Briefly: MBC/MFC determination. The note with it: alone. How it is done: as §1
Assay [2] concerns Staphylococcus aureus ON89. Description: MBC/MFC determination. The note with it: alone. How it is done: as §1
Another assay relates to Candida albicans SK4b. Briefly: MBC/MFC determination. To be noted: alone. As to the method: as §1

Consider `[H]/N=C(\N/C(=N/[H])NCCCCCCNC(=N)NC(=N)Nc1ccc(Cl)cc1)Nc1ccc(Cl)cc1` [Chlorhexidine HCl, 1,6-bis(4′-chlorophenylbiguanide) hexane], for which the MIC in the assay on all test organisms fell in the range of 0.1 to 50 µg/mL. Besides, the MBC/MFC in assay [1] came out at 0.8 µg/mL; in the assay with Escherichia coli ON29, 0.8 µg/mL; in assay [2], 0.8 µg/mL; in the assay on Candida albicans SK4b, 3.125 µg/mL.
As for `O=C([O-])CN(CCN(CC(=O)[O-])CC(=O)[O-])CC(=O)[O-].[Na+].[Na+].[Na+].[Na+]` [EDTA, tetrasodium EDTA], the MBC/MFC is 0.5 % w/v in assay [1], 1 % w/v in the assay on Escherichia coli ON29, 1 % w/v in assay [2] and 1 % w/v against Candida albicans SK4b.
As for `CCO` [Ethanol, ethanol], the MBC/MFC in assay [1] amounted to 6.25 % w/v; in the assay on Escherichia coli ON29, 25 % w/v; in assay [2] it was 25 % w/v; against Candida albicans SK4b, 6.25 % w/v.
